Where a name gives a salt, the structure may show the parent alone.
Test system: alpha-2-receptor
Test: Radioligand binding, alpha-2 adrenoceptor, rat cerebral cortices, [3H]-rauwolscine
Settings: ratio Ki alpha-1/Ki alpha-2
Description: (§1) The compounds were assessed for alpha-adrenergic receptor subtype selectivity by use of radioligand binding techniques as described previously (DeBernardis et.al. J. Med. Chem. 28, 1398 (1985)).

| Compound | alpha-2 - Selectivity Ki alpha-1/Ki alpha-2 |
| --- | --- |
| CN(CCc1cccc(F)c1)CC1CCCc2c1ccc1c2OCCO1 (stereo not drawn) [Example 167, 1-((N-Methylamino)methyl-N-(2-m-fluorophenethyl))-5,6-ethylenedioxy tetralin methanesulfonate] | 85 |
| Fc1ccc2c(c1)CCCC2CN1CCC(c2cccs2)C1 (stereo not drawn) [Example 149, 6-Fluoro-1-(3-(2-thienyl)pyrrolidino-1-methyl) tetralin methanesulfonate] | 45 |
| 5-Methoxy-1-(3-phenylpyrrolidino-1-methyl) indane hydrochloride [Example 152] | 11 |

Target: T1, alpha-1-receptor (Rattus norvegicus, UniProt P15823)
T1 construct: rat liver homogenates; from tissue; host or cells: rat liver homogenate
T1 sequence (P15823 1-515): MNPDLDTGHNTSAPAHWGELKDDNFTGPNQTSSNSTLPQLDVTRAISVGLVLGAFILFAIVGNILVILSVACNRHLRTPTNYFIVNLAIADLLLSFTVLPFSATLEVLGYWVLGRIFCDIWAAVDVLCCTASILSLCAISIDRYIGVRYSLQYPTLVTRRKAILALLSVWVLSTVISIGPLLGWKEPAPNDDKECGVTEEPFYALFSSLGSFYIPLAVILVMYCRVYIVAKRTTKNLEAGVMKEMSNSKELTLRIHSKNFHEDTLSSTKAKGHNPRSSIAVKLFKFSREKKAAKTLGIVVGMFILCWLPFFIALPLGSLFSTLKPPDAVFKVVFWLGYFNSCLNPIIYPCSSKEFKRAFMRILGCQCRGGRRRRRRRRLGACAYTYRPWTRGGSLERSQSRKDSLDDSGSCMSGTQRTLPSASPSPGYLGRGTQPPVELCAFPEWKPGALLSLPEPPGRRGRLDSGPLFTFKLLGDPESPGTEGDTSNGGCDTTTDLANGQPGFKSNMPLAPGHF
Test: Radioligand binding, alpha-1 adrenoceptor, rat liver homogenates, [3H]-prazosin
Settings: not given
Description: as §1

| Compound | Ki |
| --- | --- |
| COC(=O)[C@H]1[C@H]2C[C@H]3c4[nH]c5ccccc5c4CCN3C[C@H]2CC[C@@H]1O [Rauwolscine, reference compound] | 392 nM |

Same assay, conditions: rat liver homogenates, [3H]-prazosin; read-out: Ki alpha-1

| Compound | Ki |
| --- | --- |
| CN(CCc1cccc(F)c1)CC1CCCc2c1ccc(O)c2O (stereo not drawn) [Example 85, 1-((N-Methylamino)methyl-N-(2-(m-fluorophenyl)ethyl))-5,6-dihydroxy tetralin hydrochloride] | 260 nM |
| CN(CCc1cccc(N)c1)CC1CCCc2cc(O)ccc21 (stereo not drawn) [Example 68, 1-((N-Methylamino)methyl N-(2-(m-aminophenyl)ethyl))-6-hydroxy tetralin dihydrobromide] | 1170 nM |
| CN(CCc1cccc(F)c1)CC1CCCc2c1ccc1c2OCCO1 (stereo not drawn) [Example 167, 1-((N-Methylamino)methyl-N-(2-m-fluorophenethyl))-5,6-ethylenedioxy tetralin methanesulfonate] | 357 nM |
| CN(CCc1ccccc1)CC1CCCc2cc(N)ccc21 (stereo not drawn) [Example 114, 1-((N-Methylaminomethyl-N-(2-phenylethyl))-6-aminotetralindihydrochloride] | 725 nM |
| COc1cc2c(cc1F)C(CN(C)CCc1ccco1)CCC2 (stereo not drawn) [Example 141, 1-((N-methylamino)methyl-N-(2-(2-furyl)ethyl))-6-methoxy-7-fluoro tetralin methanesulfonate] | 880 nM |
| CN(CCc1cccc(O)c1)CC1CCCc2cc(O)ccc21 (stereo not drawn) [Example 82, 1-((N-Methylamino)methyl-N-(2-(m-hydroxyphenyl)ethyl))-6-hydroxy tetralin hydrochloride] | 495 nM |
| Fc1ccccc1C1CCN(CC2CCCc3c2ccc2c3OCO2)C1 (stereo not drawn) [Example 176a, 5,6-Methylenedioxy-1-(3-(o-fluorophenyl)pyrrolidino-1-methyl) tetralin methanesulfonate] | 79 nM |
| CCN(CCc1cccs1)CC1CCCc2c1ccc1c2OCO1 (stereo not drawn) [Example 164, 1-(N Ethylamino)methyl-N-(2-(2-thienyl)ethyl))-5,6-methylenedioxy tetralin hydrochloride] | 954 nM |
| CCN(CCc1cccs1)CC1CCCc2cc(OC)ccc21 (stereo not drawn) [Example 41, 1-((N Ethylamino)methyl-N (2-(2-thienyl)ethyl))-6methoxy tetralin hydrochloride] | 950 nM |
| COc1ccc2c(c1)CCCC2CN(C)CCc1cccc(F)c1 (stereo not drawn) [Example 6b, 1-((N-methylamino)methyl-N-(2-(m-fluorophenyl)ethyl))-6-methoxy tetralin hydrochloride] | 1180 nM |
| COc1ccc2c(c1)CCCC2CN(C)CCC1CCCC1 (stereo not drawn) [Example 6f, 1-((N methylamino)methyl -N-(2-(cyclopentyl)ethyl))-6-methoxy tetralin hydrochloride] | 2160 nM |
| COc1cc2c(cc1C)C(CN(C)CCc1ccco1)CCC2 (stereo not drawn) [Example 128, 1-((N-Methylamino)methyl-N-(2-(2-furyl)ethyl))6-methoxy-7-methyl tetralin hydrochloride] | 855 nM |
| CN(CCc1cccs1)CC1CCCc2c1ccc1c2OCCO1 (stereo not drawn) [Example 30, 1-((N Methylamino)methyl-N-(2-(2-thienyl)ethyl))-5,6-ethylenedioxy tetralin hydrochloride] | 470 nM |
| CCN(CCc1ccco1)CC1CCCc2cc(OC)ccc21 (stereo not drawn) [Example 43, 1-((N-Ethylamino)methyl-N-(2-(2-furyl)ethyl))-6-methoxy tetralin hydrochloride] | 1400 nM |
| c1csc(C2CCN(CC3CCCc4c3ccc3c4OCO3)C2)c1 (stereo not drawn) [Example 144, 5,6-Methylenedioxy-1-(3-(2-thienyl)pyrrolidino-1-methyl) tetralin methanesulfonate] | 245 nM |
| COc1ccc2c(c1)CCCC2CN(C)CCc1cccc(O)c1 (stereo not drawn) [Example 83, 1-((N-Methylamino)methyl-N-(2-(m-hydroxyphenyl)ethyl))-6-methoxy tetralin hydrochloride] | 955 nM |
| COc1ccc2c(c1)C(CN(C)CCc1cccs1)CCC2 (stereo not drawn) [Example 27, 1-((N-Methylamino)methyl-N (2-(2-thienyl)ethyl))7-methoxy tetralin hydrochloride] | 525 nM |
| COc1ccc2c(c1)CCCC2CN(C)CCc1cccs1 (stereo not drawn) [Example 5, ((N-Methylamino)methyl-N-(2-(2-thienyl)ethyl)) 6-methoxy tetralin methanesulfonate] | 580 nM |
| CN(CCc1ccccc1)CC1CCCc2ccccc21 (stereo not drawn) [Example 88, 1-((N-Methylamino)methyl-N-(2-phenethyl))-tetralin hydrochloride] | 315 nM |

| Compound | Ki |
| --- | --- |
| CN(CCc1cccs1)CC1CCCc2c1ccc(O)c2O (stereo not drawn) [Example 87, 1-((N-Methylamino)methyl-N-(2-(2-thienyl)ethyl))-5,6-dihydroxy tetralin hydrochloride] | 444 nM |
| COc1cc2c(c(OC)c1)C(CN(C)CCc1cccs1)CCC2 (stereo not drawn) [Example 26, 1-((N Methylamino)methyl-N-(2-(2-thienyl)ethyl))6,8-dimethoxy tetralin hydrochloride] | 175 nM |
| CN(CCc1cccc(F)c1)CC1CCCc2ccccc21 (stereo not drawn) [Example 70, 1-((N Methylamino)methyl-N-(2-(mfluorophenyl)ethyl))-tetralin hydrochloride] | 525 nM |
| CCN(CCc1cccc(F)c1)CC1CCCc2c1ccc1c2OCO1 (stereo not drawn) [Example 165, 1-((N-Ethylamino)methyl-N-(2-m-fluorophenethyl))-5,6-methylenedioxy tetralin hydrochloride] | 462 nM |
| COc1ccc2c(c1)CCCC2CN(C)CCc1cccn1C (stereo not drawn) [Example 12, 1-((N-Methylamino)methyl-N-(2-(N-methyl-2-pyrrolyl)ethyl))-6-methoxy tetralin fumarate] | 1210 nM |
| COc1ccc2c(c1)CCCC2CN(C)CCc1ccsc1 (stereo not drawn) [Example 6d, 1-((N-methylamino)methyl-N-(2-(3-thienyl)ethyl))-6-methoxy tetralin hydrochloride] | 500 nM |
| CCN(CCc1ccsc1)CC1CCCc2cc(OC)ccc21 (stereo not drawn) [Example 44, 1-((N-Ethylamino)methyl-N-(2-(3-thienyl)ethyl))-6-methoxy tetralin hydrochloride] | 590 nM |
| CN(CCc1cccs1)CC1CCCc2ccccc21 (stereo not drawn) [Example 22, 1-((N-Methylamino)methyl-N-(2-(2-thienyl)ethyl)) tetralin hydrochloride] | 695 nM |
| CN(CCc1cccc(F)c1)CC1CCCc2c1ccc1c2OCO1 (stereo not drawn) [Example 166, 1-((N-Methylamino)methyl-N (2-m-fluorophenethyl))-5,6-methylenedioxy tetralin methanesulfonate] | 603 nM |
| CCCN(CCc1cccs1)CC1CCCc2cc(OC)ccc21 (stereo not drawn) [Example 58, 1-((N-Propylamino)methyl)-N-(2-(2-thienyl)ethyl))-6-methoxy tetralin hydrochloride] | 1830 nM |
| COc1ccc2c(c1)CCCC2CN(C)CCc1cccc(N)c1 (stereo not drawn) [Example 67, 1-((N-Methylamino)methyl-N-(2-(m-aminophenyl)ethyl))-6-methoxy tetralin dihydrochloride] | 1170 nM |
| CCN(CCc1cccs1)CC1CCCc2c1ccc1c2OCCO1 (stereo not drawn) [Example 168, 1-((N Ethylamino)methyl-N-(2-(2-thienyl)ethyl))-5,6-ethylenedioxy tetralin hydrochloride] | 823 nM |
| COc1ccc2c(c1OC)CCCC2CN(C)CCc1cccs1 (stereo not drawn) [Example 86, 1-((N-Methylamino)methyl-N-(2-(2-thienyl)ethyl))-5,6-dimethoxy tetralin hydrochloride] | 495 nM |
| Cc1cc(O)c(O)c2c1C(CN(C)CCc1cccc(F)c1)CCC2 (stereo not drawn) [Example 34, 1-((N-Methylamino)methyl-N (2-(m-fluorophenyl)ethyl))-5,6-dihydroxy-8-methyl tetralin hydrobromide] | 330 nM |
| COc1ccc2c(c1)CCC2CN(C)CCc1cccs1 (stereo not drawn) [Example 37, 1-((N-Methylamino)methyl-N-(2-(2-thienyl)ethyl))-5-methoxy indane hydrochloride] | 645 nM |
| CN(CCc1cccs1)CC1CCCc2c1ccc(O)c2I (stereo not drawn) [Example 115, 1-((N-Methylamino)methyl-N-(2-(2-thienyl)ethyl))-5-iodo-6-hydroxy tetralin hydrochloride] | 530 nM |
| CCN(CCc1cccc(F)c1)CC1CCCc2cc(OC)ccc21 (stereo not drawn) [Example 42, 1-((N Ethylamino)methyl-N-(2-(m-fluorophenyl)ethyl))-6-methoxy tetralin hydrochloride] | 1050 nM |
| CN(CCc1cccs1)CC1CCCc2c1ccc1c2OCO1 (stereo not drawn) [Example 23, 1-((N-Methylamino)methyl-N-(2-(2-thienyl)ethyl))-5,6-methylenedioxy tetralin hydrochloride] | 445 nM |
| CN(CCc1cccs1)CC1CCCc2cc(O)ccc21 (stereo not drawn) [Example 7, 1-((N-Methylamino)methyl N-(2-(2-thienyl)ethyl)) 6-hydroxy tetralin hydrochloride] | 565 nM |

— patent publication US5086074A, “1-aminomethyl-1,2,3,4-tetrahydronaphthalenes” (Abbott Laboratories, priority 1990, dated 1992)
